Measurements reported in patent US11730712B2, “Functionalized long-chain hydrocarbon mono- and di-carboxylic acids and derivatives thereof, and their use for the prevention or treatment of disease” (ESPERVITA THERAPEUTICS, INC., priority 2021, dated 2023).
Entries after “also recorded” stand apart in the source; their conditions may differ.

Key:
[1] = tested on: Hep3B human hepatocarcinoma cells; assay: Colony formation assay (clonogenic survival, 7 days); assay type: cell-based; settings: 168 h, read-out: Hep3B (IC50), anti-clonogenic activity
Description: (§1) Colony formation assay. Hep3B and Hepa1-6 cells were seeded in 12-well plates at a cell density of 1000 and 500 cells/well, respectively. On day 2, media in each well was aspirated and replaced with 1000 μl of fresh complete media and cells were treated with or without the respective drugs in an increasing concentration followed by the incubation of the cells for 7 days in an incubator.
(§2) On day 9, the media in each well was aspirated and cells were fixed with 10% formalin (500 μl) for 10 minutes at room temperature. Formalin was aspirated and the plates were washed with 1×PBS and stained with crystal violet for another 10 minutes. After 10 minutes of staining, crystal violet was […] the cells, rinsed with tap water for three times and the plates were dried overnight. Next day, colonies (>50 cells) were counted and analyzed.
(§3) Statistical tests. Results were indicated as mean±standard deviation (SD). All line graphs were prepared using Graph Pad Prism 8 software. Proliferation and clonogenics IC50 values were calculated using a non-linear regression model in Graph pad Prism 8.

[2] = tested on: Hepa1-6 murine hepatoma cells; assay: as above; assay type: cell-based; settings: Mus musculus, Hepa1-6, 168 h, read-out: Hepa1-6 (IC50), anti-clonogenic activity
Description: as §1, §2, §3

[3] = tested on: hepatic cell death pathways (pyroptosis, necroptosis, apoptosis); assay: Hepatic cell death pathways by Western blot (gasdermin D, cleaved caspase 3, cleaved RIP3); assay type: in vivo, mouse; settings: liver samples from HFCC/CDX mice, 100 mg/kg QD oral, 2 weeks
Description: Compound I-1 and Compound I-32 were tested for their ability to alter hepatic cell death pathways (i.e., pyroptosis, necroptosis, and apoptosis) using liver samples from Example 7. Detection was performed on liver sections obtained from the experiment described in Example 7. Paraffin sections were deparaffinized. Western blot analysis was performed by the We-Met platform. Toulouse. France, France. Commercial primary antibodies for Gasdermin D (reference ab209845; Abcam, Cambridge, UK), cleaved caspase 3 (reference 9664, Cell Signaling Technology. Danvers, Mass.), cleaved receptor interacting protein 3 (RIP3; reference ab56164; Abcam) and actin (reference 4970; Cell Signaling Technology) for control, were used on the WES automated western blot system (Proteinsimple, San Jose, Calif.). Data are presented as mean±SEM, with n=6-10 mice per experimental group, as indicated in the legends. Two-way analysis of variance with Bonferroni post-test. Mann-Whitney U-test, or unpaired two-tailed Student's t-test were used for statistical analysis using GraphPad Prism software (GraphPad Software, La Jolla, Calif.). A P<0.05 was considered significant.

[4] = tested on: Hepa1-6 murine hepatoma cells; assay: Cell proliferation assay (presto blue, 72 h); assay type: cell-based, mouse; settings: for Hepa1-6 cell proliferation compared to control, compound alone: 100 μM; for Hepa1-6 cell proliferation compared to control, compound alone / inhibition of Hepa1-6 cell proliferation in combination with lenvatinib vs each agent alone / inhibition of Hepa 1-6 cell proliferation in combination with regorafenib vs individual effects / inhibition of Hepa1-6 cell proliferation in combination with sorafenib vs each agent alone: 72 h; for IC50: Mus musculus, Hepa1-6, 72 h, read-out: Hepa1-6 (IC50), anti-proliferation activity; for synergism with lenvatinib (CI), Hepa1-6 cells: all tested concentrations: 1 μM and 0.3 μM to 100 μM and 30 μM; for inhibition of Hepa1-6 cell proliferation in combination with lenvatinib vs each agent alone: compound 100 μM + lenvatinib 30 μM; for inhibition of Hepa 1-6 cell proliferation in combination with regorafenib vs individual effects: compound 100 μM + regorafenib 5 μM; for inhibition of Hepa1-6 cell proliferation in combination with sorafenib vs each agent alone: compound 100 μM + sorafenib 5 μM
Description: Cell cultures. Hep3B (ATCC) and Hepa1-6 (ATCC) cells were seeded in 96-well plates at a density of 3000 cells/well with complete media. On day 2, media in each well was aspirated and replaced with 100 μl of fresh complete media and cells were treated with or without Compound I-1, Compound I-32, Compound I1-84, and Compound I-85, in a concentration dependent manner. Then, cells were incubated in an incubator for 72 h. On day 5, 10 μl of presto blue (Invitrogen, cat #A13261) cell viability reagent was added in each 96-well plate and incubated at 37° C. for 1-2 h. After incubation, fluorescence was measured with an excitation/emission wavelength of 560/590 nm.
Proliferation assay. Hep3B (ATCC) and Hepa1-6 (ATCC) cells were seeded in 96-well plates at a density of 3000 cells/well with complete media. On day 2, media in each well was aspirated and replaced with 100 μl of fresh complete media and cells were treated with/without testing compounds in a concentration dependent manner. Then, cells were incubated in an incubator for 72 h. On day 5, 10 μl of presto blue (Invitrogen, cat #A13261) cell viability reagent was added in each 96-well plate and incubated at 37° C. for 1-2 h. After incubation, fluorescence was measured with an excitation/emission wavelength of 560/590 nm. Anti-proliferative combination effects of Compound I-1 or Compound I-32 and regorafenib were determined in Hep3B and Hepa1-6 cells. Drug combination interaction was determined by the Chou-Talalay method (23), which is based on well-known equations for different reaction sequences and mechanisms, and different types of inhibition. These equations provide the theoretical basis for the combination index (CI)-isobologram equation that allows quantitative determination of drug interactions, where CI<1, =1, and >1 indicate synergism, additive effect, and antagonism, respectively. CI is calculated based on in vitro measurements implemented in the Compusyn software (www.combosyn.com), a platform for drug combinations pharmacodynamics with automated simulations. The software calculates CI based on the Fractional Inhibition (Fa), which is the potency expressed by the average effect values for each drug concentrations as determined by in vitro experiments. The dose-effect data entries are utilized for automated computerized analysis by the Compusyn software.
Data entered was obtained by in vitro experiments performed as follows: Hep3B or Hepa 1-6 cells were plated in a 96-well format and cell proliferation rates were determined as described above. Cells were treated with 5 doses of each test agent alone at the following concentrations: compounds of the invention dosed at 1, 5, 10, 50, or 100 μM for both Hep3B and Hepa1-6 cells, regorafenib dosed at 0.015, 0.075, 0.15, 0.75, and 1.5 μM for Hep3B cells or 0.05, 0.25, 0.5, 2.5, 5 μM for Hepa 1-6 cells. […]. Data are shown as Fa-CI plots where CI is the combination index and Fa is fractional inhibition. Results were indicated as mean±standard deviation (SD). All bar diagrams and line graphs were prepared using Graph Pad Prism 8 software. Drug synergy was calculated using the CompuSyn software.
Methods: Hep3B cells (supplied by ATCC) and Hepa1-6 cells (supplied by ATCC) were seeded in 96-well plates at a density of 3000 cells/well with complete media. On day 2, the media in each well was aspirated and replaced with 100 μL of fresh complete media, and the cells were treated in a concentration dependent manner with either Compound I-1, Compound I-32, Compound I-84, Compound I-85, sorafenib, lenvatinib, Compound I-1 in combination with sorafenib. Compound I-1 in combination with lenvatinib, Compound I-32 in combination with sorafenib, or Compound I-32 in combination with lenvatinib. The cells were then incubated in an incubator at 37° C. for 72 h. On day 5, 10 μL of presto blue (Invitrogen, cat #A13261) cell viability reagent was added to each 96-well plate and incubated at 37° C. for 1-2 h. […]

female Wistar Han rats = assay: 4-day oral gavage toxicity study in female rats; settings: for clinical chemistry: globulin concentration and albumin:globulin ratio: 100 mg/kg/day Compound I-1 or 300 mg/kg/day Compound I-1 or Compound I-32; for compound-related effects in hematology or coagulation test results / compound-related mortality, clinical observations, body weight effects, changes in food consumption / dose whose effects were considered nonadverse: female rats, 4 days; for compound-related effects in hematology or coagulation test results / compound-related mortality, clinical observations, body weight effects, changes in food consumption: 100 or 300 mg/kg/day oral gavage; for dose whose effects were considered nonadverse: oral gavage; for microscopic findings in the liver: ≥100 mg/kg/day Compound I-1 or 300 mg/kg/day Compound I-32

Structure (SMILES) | IC50 [1] [µM] | IC50 [2] [µM] | hepatic cell death pathways (pyroptosis, apoptosis, necroptosis) by Western blot [3] | Hepa1-6 cell proliferation compared to control, compound alone [4] | IC50 [4] [µM] | synergism with sorafenib (CI), Hepa1-6 cells ([4]; all tested concentrations: 1 μM and 0.05 μM to 100 μM and 5 μM) | synergism with lenvatinib (CI), Hepa1-6 cells [4] | inhibition of Hepa1-6 cell proliferation in combination with lenvatinib vs each agent alone [4] | inhibition of Hepa 1-6 cell proliferation in combination with regorafenib vs individual effects [4] | inhibition of Hepa1-6 cell proliferation in combination with sorafenib vs each agent alone [4] | clinical chemistry: globulin concentration and albumin:globulin ratio (female Wistar Han rats) | microscopic findings in the kidney (female Wistar Han rats; 300 mg/kg/day) | compound-related effects in hematology or coagulation test results (female Wistar Han rats) | compound-related mortality, clinical observations, body weight effects, changes in food consumption (female Wistar Han rats) | dose whose effects were considered nonadverse (female Wistar Han rats) [mg/kg/day] | microscopic findings in the liver (female Wistar Han rats) | synergism with sorafenib (CI), Hepa1-6 cells ([4]; compound and sorafenib: 1 μM and 0.05 μM, 10 μM and 0.25 μM, 50 μM and 2.5 μM, 100 μM and 5 μM) | clinical chemistry: serum urea nitrogen concentration (female Wistar Han rats; 300 mg/kg/day)
CC(C)(CCCCc1ccc(CCCCC(C)(C)C(=O)O)cc1)C(=O)O [Compound I-1, 6-[4-(5-carboxy-5-methylhexyl)-phenyl]-2,2-dimethylhexanoic acid] | 50.7 | 67.6 | significantly repressed pyroptosis and apoptosis cell death pathways with a trend towards necroptosis | inhibited Hepa1-6 cell proliferation compared to control | > 100 | synergism | synergism | significantly greater inhibition of Hepa1-6 cell proliferation | greater inhibition of cell proliferation compared to their individual effects | significantly greater inhibition of Hepa1-6 cell proliferation | minimally lower globulin concentration and minimally higher albumin:globulin ratio | tubular degeneration/necrosis, tubular regeneration, and increased mitoses | No Compound I-1- or Compound I-32-related effects in hematology or coagulation test results were identified | No Compound I-1- or Compound I-32-related mortality, clinical observations, body weight effects, or changes in food consumption were noted | 100 | increase in mitoses in hepatocytes |  | 
CC(C)(CCCCc1cccc(CCCCC(C)(C)C(=O)O)c1)C(=O)O [Compound I-32, 6-[3-(5-carboxy-5-methylhexyl)-phenyl]-2,2-dimethylhexanoic acid] | 40.8 | 58.9 | significantly repressed pyroptosis and apoptosis cell death pathways with a trend towards necroptosis | inhibited Hepa1-6 cell proliferation compared to control | > 100 |  | synergism | significantly greater inhibition of Hepa1-6 cell proliferation | greater inhibition of cell proliferation compared to their individual effects | significantly greater inhibition of Hepa1-6 cell proliferation | minimally lower globulin concentration and minimally higher albumin:globulin ratio |  | No Compound I-1- or Compound I-32-related effects in hematology or coagulation test results were identified | No Compound I-1- or Compound I-32-related mortality, clinical observations, body weight effects, or changes in food consumption were noted | 300 | increase in mitoses in hepatocytes; also recorded: periportal hepatocyte vacuolation | significant synergism | Minimally lower serum urea nitrogen concentration
